Data from PubChem BioAssay (NCI).
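Test compounds were applied to cells in 96-well plates for 48 hours at 5 doses. The concentration for 50% growth inhibition is given as GI50. TGI: concentration producing complete growth inhibition.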

Key:
Test in all cases: inhibition of tumour cell growth, NCI panel, 48 h
[1] = test system: HCT-116 colon
[2] = test system: HOP-92 NSCLC
[3] = test system: HT29 colon
[4] = test system: IGROV1 ovarian
[5] = test system: MALME-3M melanoma
[6] = test system: NCI-H460 lung
[7] = test system: NCI-H522 lung
[8] = test system: OVCAR-3 ovarian
[9] = test system: SK-MEL-5 melanoma
[10] = test system: UO-31 renal

Compound	GI50 [1] [µM]	TGI [1] [µM]	GI50 [2] [µM]	TGI [2] [µM]	GI50 [3] [µM]	TGI [3] [µM]	GI50 [4] [µM]	TGI [4] [µM]	GI50 [5] [µM]	TGI [5] [µM]	GI50 [6] [µM]	TGI [6] [µM]	GI50 [7] [µM]	TGI [7] [µM]	GI50 [8] [µM]	TGI [8] [µM]	GI50 [9] [µM]	TGI [9] [µM]	GI50 [10] [µM]	TGI [10] [µM]
CNC(=O)c1cc(Oc2ccc3nc(NC(=O)Nc4ccc(CN5CCOCC5)c(C(F)(F)F)c4)sc3c2)ccn1	1.78	3.62	1.44	3.64	2.14	5.5	2.77	10.5	1.44	3.98	2.01	4.33	1.97	8.36	1.79	4.16	1.01	2.22	1.65	3.94
O/N=C1/CCCC/C1=C/C=C/c1ccccc1		29.7		36.7		32.9		36.8		41		53.8		34.1		35.2		30.2		49.4
CC(=O)NNc1nc(C)c(C(=O)NNC(=O)C(=O)Nc2ccc(Cl)c([N+](=O)[O-])c2)s1		> 100		> 100		> 100		> 100		> 100		> 100		79.5		80.8		> 100		> 100
CC12Nc3ccccc3C1=C(c1ccccc1)CC1C(=O)OC(=O)C12 (stereo not drawn)		> 100		> 100		> 100		> 100		> 100		> 100		> 100		> 100		> 100		> 100
COc1ccc2[nH]c(Cl)c(/C=C3/C(=O)Nc4ccccc43)c2c1	0.238	1.17	1.99	4.09	0.316		0.724	20.7	0.643	2.26	1.25	> 34.8	0.381	1.87	0.537	1.07	0.0902	0.722	0.878	9.96
C/C(=N\Nc1ccccc1)c1sc(-c2nc(C)c(/C(C)=N/Nc3ccccc3)s2)nc1C		> 100		> 57.6		26.2		> 60.9		51		> 100		48.3		59.9		> 47.6		> 60.7
O=C1C=CC2(CCCCCCC2=O)CC1 (stereo not drawn)		> 100		> 100		> 100		> 100		> 100		> 100		> 100		> 100		> 100		> 100
Cc1noc2cccc(O)c12		> 100		> 100		> 100		> 100		> 100		> 100		> 100		> 100		> 100		> 100
C[C@@H](Nc1nc(N[C@H](C)C(F)(F)F)nc(-c2cccc(Cl)n2)n1)C(F)(F)F	59.4	> 100	10.1	63.6	> 100	> 100	52.5	> 100	60.2	> 100	36.1	> 100	30	> 100	31.5	> 100	51.2	> 100	51.3	> 100
CCc1cccc(C(C)C)c1NC(=O)CC1Sc2ccccc2NC1=O (stereo not drawn)		> 100		95.3		> 100		> 100		> 100		> 100		97.6		> 100		> 100		> 100
C[C@@H](O)[C@@H](C)Oc1nc(Nc2ccc(S(=N)(=O)C3CC3)cc2)ncc1C(F)(F)F (stereo partly drawn)	0.0228	> 100	0.026	0.0753	0.033		0.0291	25.2	0.0455	0.167	0.0303	11.5	0.0328	0.81	0.018	18.6	0.0266	0.108	0.0239	0.0895
C[C@H]1CCC/C=C/C2CC(OC(=O)CN(C)C)CC2C(OC(=O)CN(C)C)/C=C/C(=O)O1 (stereo partly drawn)	0.762	16.7	1.69	12.5	0.342	3.8	1.71	34.4	0.171	0.371	1.09	31.2	0.658	2.83	0.428	3.2	0.0982	0.243	0.142	0.765
Oc1ccc(NC(=S)Nc2ccccc2)cc1	> 100	> 100	51.8	> 100	> 100	> 100	> 100	> 100	> 100	> 100	> 100	> 100	> 100	> 100	> 100	> 100	> 100	> 100	> 100	> 100
N#C/C(=C\c1ccc(O)c(O)c1)C(=O)NCc1ccc(C(F)(F)F)cc1	2.58	11.4	0.468	12.3	15.7	50.7	2.4	14.4	0.771	30.7	6.87	> 43	3.06	19.6	0.507	1.11	8.09	24.4	4.62	18
CC1(C)OB(c2ccc(N(CCOS(C)(=O)=O)CCOS(C)(=O)=O)cc2)OC1(C)C	10.5	24.7	10.2	48.6	30	> 100	4.89	35.4	12.9	46.1	12.6	> 100	14.3	74.5	18.9	45.3	16.2	38.2	16.5	> 64.6
Cc1cc2c(cc1Cl)SC(N(c1ccccc1Cl)S(=O)(=O)c1ccc(Br)s1)=NS2(=O)=O	16.5	34.3	6.62	21.8	19.9	41.6	19.8	89.8	13.8	39.4	13.9	36.3	13.5	31.7	18.2	60.1	13.8	26.7	19.9	62
